BindingDB's records for PubMed 20126400 (University of Oklahoma, 2010)

Legend:
Test in all cases: Ray2010 Assay 74
[1] = biological target: T1, 5-hydroxytryptamine receptor 1A (Homo sapiens, UniProt P08908)
T1 sequence (P08908 whole entry): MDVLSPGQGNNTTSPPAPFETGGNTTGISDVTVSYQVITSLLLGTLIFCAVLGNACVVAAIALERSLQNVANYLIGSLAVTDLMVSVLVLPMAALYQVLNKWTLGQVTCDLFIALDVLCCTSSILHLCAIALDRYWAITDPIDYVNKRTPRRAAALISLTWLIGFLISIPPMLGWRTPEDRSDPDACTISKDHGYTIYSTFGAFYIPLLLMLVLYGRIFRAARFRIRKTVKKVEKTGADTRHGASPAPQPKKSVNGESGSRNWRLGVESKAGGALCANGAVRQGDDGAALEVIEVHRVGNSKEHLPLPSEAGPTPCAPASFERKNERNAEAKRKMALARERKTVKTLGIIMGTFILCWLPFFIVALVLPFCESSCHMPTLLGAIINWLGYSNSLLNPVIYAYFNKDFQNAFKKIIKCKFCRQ
From the text: (§1) Table S2 shows raw Ki data for the current study combined with data collected from the literature for the ten additional compounds.

[2] = biological target: 5-hydroxytryptamine receptor 1D (Homo sapiens, UniProt P28221)
From the text: as §1

[3] = biological target: 5-hydroxytryptamine receptor 2B (Homo sapiens, UniProt P41595)
From the text: as §1

[4] = biological target: T2, 5-hydroxytryptamine receptor 3A (Homo sapiens, UniProt P46098)
T2 sequence (P46098 whole entry): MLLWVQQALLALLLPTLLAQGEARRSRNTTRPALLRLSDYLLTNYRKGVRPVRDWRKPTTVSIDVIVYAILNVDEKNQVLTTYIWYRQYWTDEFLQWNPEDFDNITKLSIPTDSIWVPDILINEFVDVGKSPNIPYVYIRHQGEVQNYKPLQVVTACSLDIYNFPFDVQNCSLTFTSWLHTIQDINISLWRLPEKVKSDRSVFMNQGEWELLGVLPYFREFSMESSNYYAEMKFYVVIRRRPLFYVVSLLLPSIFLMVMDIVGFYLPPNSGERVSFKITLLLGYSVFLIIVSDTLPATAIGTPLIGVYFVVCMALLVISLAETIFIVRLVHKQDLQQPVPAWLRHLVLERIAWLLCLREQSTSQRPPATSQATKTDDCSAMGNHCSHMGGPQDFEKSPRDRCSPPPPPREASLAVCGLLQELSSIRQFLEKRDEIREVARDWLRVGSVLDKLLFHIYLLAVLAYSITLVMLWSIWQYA
From the text: as §1

[5] = biological target: 5-hydroxytryptamine receptor 6 (Homo sapiens, UniProt P50406)
From the text: as §1

[6] = biological target: T3, Alpha-1A adrenergic receptor (Homo sapiens, UniProt P35348)
T3 sequence (P35348 whole entry): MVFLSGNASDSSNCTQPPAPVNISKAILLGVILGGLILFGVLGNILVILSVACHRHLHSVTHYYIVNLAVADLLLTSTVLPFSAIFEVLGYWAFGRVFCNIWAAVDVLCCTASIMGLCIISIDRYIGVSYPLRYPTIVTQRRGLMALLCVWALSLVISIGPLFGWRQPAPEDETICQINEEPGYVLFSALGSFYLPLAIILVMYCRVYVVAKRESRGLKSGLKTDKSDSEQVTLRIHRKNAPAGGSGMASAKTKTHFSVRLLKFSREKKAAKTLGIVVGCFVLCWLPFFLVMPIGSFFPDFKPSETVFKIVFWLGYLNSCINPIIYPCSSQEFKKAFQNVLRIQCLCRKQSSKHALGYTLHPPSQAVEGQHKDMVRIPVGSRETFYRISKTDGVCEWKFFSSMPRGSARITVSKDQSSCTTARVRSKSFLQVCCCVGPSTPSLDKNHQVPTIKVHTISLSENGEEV
From the text: as §1

[7] = biological target: Beta-1 adrenergic receptor (Homo sapiens, UniProt P08588)
From the text: as §1

D(1B) dopamine receptor = D(1B) dopamine receptor (Homo sapiens, UniProt P21918)
From the text: as §1

D(2) dopamine receptor = D(2) dopamine receptor (Homo sapiens, UniProt P14416)
From the text: as §1

[8] = biological target: Delta-type opioid receptor (Homo sapiens, UniProt P41143)
From the text: as §1

[9] = biological target: T4, Gamma-aminobutyric acid receptor subunit alpha-1 (Homo sapiens, UniProt P14867)
T4 sequence (P14867 whole entry): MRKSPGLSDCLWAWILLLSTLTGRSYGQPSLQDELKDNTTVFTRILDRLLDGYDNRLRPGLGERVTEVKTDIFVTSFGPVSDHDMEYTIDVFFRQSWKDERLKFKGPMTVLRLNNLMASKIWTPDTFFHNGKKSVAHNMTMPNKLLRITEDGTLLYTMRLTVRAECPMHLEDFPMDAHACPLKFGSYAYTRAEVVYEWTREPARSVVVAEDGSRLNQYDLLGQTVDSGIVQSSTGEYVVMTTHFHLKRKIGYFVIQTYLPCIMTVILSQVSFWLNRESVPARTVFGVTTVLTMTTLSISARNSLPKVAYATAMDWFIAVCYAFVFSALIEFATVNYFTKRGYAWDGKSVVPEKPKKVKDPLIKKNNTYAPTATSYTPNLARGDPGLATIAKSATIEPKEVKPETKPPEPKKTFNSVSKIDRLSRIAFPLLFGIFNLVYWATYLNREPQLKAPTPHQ
From the text: as §1

[10] = biological target: Glutamate receptor ionotropic, NMDA 2A (Homo sapiens, UniProt Q12879)
From the text: as §1

Histamine H4 receptor = Histamine H4 receptor (Homo sapiens, UniProt Q9H3N8)
From the text: as §1

Mu-type opioid receptor = Mu-type opioid receptor (Homo sapiens, UniProt P35372)
From the text: as §1

[11] = biological target: T5, Muscarinic acetylcholine receptor M2 (Homo sapiens, UniProt P08172)
T5 sequence (P08172 whole entry): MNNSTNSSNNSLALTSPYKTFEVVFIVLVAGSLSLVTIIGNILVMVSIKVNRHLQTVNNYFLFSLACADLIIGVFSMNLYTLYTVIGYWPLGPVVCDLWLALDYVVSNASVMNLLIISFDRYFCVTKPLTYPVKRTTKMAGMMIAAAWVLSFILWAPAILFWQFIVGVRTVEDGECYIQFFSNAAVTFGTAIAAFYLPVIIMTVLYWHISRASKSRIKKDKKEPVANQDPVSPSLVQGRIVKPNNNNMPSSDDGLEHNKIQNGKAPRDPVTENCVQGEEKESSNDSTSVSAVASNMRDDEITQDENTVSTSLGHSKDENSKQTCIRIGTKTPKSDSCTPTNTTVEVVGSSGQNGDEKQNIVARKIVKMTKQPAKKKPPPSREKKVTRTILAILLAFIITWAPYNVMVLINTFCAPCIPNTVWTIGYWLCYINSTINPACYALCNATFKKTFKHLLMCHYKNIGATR
From the text: as §1

Chain of D(2) dopamine receptor (P14416 whole entry): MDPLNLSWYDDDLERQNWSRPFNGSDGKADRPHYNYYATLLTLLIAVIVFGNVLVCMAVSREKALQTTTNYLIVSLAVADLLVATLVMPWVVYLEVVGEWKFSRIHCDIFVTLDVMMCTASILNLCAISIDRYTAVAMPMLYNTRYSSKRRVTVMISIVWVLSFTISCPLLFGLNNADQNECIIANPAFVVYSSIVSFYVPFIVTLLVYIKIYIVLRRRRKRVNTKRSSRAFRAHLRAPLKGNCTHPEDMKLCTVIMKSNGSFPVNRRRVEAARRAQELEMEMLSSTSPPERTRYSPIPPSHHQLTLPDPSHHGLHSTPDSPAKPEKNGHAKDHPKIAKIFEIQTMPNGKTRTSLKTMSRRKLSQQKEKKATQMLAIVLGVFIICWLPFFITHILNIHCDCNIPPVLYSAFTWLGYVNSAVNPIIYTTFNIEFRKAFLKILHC
Chain of 5-hydroxytryptamine receptor 6 (P50406 whole entry): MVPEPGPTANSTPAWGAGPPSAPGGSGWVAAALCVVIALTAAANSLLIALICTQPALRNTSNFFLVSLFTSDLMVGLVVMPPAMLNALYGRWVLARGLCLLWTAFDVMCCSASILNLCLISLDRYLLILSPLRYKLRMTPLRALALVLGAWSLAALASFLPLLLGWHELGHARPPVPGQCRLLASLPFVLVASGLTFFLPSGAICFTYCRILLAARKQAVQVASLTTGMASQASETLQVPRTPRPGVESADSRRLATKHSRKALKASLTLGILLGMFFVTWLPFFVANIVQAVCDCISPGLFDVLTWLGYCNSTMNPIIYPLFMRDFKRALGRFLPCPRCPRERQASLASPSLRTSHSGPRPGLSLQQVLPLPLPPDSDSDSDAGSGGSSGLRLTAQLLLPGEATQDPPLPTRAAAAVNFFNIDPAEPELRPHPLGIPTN
Chain of Histamine H4 receptor (Q9H3N8 whole entry): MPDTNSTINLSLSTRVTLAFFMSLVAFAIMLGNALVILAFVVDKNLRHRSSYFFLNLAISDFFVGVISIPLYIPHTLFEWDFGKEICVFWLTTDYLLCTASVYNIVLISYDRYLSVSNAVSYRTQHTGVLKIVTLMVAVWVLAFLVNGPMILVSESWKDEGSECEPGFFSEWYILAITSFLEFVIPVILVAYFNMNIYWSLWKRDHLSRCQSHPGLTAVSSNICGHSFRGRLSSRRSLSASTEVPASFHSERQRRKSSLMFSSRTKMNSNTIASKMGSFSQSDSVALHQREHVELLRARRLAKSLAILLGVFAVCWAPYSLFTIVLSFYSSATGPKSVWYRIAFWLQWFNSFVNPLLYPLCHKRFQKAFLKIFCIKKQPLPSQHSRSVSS
Chain of 5-hydroxytryptamine receptor 2B (P41595 whole entry): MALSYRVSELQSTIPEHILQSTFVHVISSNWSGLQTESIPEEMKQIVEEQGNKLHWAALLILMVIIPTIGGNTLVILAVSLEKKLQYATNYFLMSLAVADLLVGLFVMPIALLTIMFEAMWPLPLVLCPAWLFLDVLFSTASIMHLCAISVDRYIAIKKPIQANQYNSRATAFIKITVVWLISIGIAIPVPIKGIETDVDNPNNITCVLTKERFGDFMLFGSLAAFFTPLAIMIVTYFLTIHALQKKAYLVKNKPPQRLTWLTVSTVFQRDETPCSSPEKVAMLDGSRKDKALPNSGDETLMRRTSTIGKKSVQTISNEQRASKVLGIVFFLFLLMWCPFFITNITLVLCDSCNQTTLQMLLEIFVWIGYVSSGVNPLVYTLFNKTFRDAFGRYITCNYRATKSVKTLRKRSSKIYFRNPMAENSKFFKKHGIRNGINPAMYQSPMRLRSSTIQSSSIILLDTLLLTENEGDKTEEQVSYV
Chain of 5-hydroxytryptamine receptor 1D (P28221 whole entry): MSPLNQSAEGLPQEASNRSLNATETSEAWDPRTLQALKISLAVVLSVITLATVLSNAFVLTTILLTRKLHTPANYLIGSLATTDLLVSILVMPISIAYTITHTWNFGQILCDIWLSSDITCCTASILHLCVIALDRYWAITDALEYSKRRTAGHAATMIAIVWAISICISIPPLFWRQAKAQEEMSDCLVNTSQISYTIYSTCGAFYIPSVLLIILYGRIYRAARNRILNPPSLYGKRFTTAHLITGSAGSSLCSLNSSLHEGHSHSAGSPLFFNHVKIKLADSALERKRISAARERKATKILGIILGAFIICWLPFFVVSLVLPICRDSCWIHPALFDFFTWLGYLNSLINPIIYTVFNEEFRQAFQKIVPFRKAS
Chain of D(1B) dopamine receptor (P21918 whole entry): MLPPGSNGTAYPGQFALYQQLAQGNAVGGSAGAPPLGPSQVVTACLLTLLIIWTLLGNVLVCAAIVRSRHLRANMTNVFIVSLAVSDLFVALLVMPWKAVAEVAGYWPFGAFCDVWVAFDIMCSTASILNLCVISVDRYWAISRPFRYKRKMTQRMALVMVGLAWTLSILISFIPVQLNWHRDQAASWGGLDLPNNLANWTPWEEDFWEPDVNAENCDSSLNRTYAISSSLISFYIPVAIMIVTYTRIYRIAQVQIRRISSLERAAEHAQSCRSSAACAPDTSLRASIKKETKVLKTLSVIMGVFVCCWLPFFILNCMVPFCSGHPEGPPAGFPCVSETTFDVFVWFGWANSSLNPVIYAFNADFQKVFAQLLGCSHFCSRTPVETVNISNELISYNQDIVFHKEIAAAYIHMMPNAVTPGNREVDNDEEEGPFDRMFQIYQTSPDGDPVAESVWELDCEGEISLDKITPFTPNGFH
Chain of Glutamate receptor ionotropic, NMDA 2A (Q12879 whole entry): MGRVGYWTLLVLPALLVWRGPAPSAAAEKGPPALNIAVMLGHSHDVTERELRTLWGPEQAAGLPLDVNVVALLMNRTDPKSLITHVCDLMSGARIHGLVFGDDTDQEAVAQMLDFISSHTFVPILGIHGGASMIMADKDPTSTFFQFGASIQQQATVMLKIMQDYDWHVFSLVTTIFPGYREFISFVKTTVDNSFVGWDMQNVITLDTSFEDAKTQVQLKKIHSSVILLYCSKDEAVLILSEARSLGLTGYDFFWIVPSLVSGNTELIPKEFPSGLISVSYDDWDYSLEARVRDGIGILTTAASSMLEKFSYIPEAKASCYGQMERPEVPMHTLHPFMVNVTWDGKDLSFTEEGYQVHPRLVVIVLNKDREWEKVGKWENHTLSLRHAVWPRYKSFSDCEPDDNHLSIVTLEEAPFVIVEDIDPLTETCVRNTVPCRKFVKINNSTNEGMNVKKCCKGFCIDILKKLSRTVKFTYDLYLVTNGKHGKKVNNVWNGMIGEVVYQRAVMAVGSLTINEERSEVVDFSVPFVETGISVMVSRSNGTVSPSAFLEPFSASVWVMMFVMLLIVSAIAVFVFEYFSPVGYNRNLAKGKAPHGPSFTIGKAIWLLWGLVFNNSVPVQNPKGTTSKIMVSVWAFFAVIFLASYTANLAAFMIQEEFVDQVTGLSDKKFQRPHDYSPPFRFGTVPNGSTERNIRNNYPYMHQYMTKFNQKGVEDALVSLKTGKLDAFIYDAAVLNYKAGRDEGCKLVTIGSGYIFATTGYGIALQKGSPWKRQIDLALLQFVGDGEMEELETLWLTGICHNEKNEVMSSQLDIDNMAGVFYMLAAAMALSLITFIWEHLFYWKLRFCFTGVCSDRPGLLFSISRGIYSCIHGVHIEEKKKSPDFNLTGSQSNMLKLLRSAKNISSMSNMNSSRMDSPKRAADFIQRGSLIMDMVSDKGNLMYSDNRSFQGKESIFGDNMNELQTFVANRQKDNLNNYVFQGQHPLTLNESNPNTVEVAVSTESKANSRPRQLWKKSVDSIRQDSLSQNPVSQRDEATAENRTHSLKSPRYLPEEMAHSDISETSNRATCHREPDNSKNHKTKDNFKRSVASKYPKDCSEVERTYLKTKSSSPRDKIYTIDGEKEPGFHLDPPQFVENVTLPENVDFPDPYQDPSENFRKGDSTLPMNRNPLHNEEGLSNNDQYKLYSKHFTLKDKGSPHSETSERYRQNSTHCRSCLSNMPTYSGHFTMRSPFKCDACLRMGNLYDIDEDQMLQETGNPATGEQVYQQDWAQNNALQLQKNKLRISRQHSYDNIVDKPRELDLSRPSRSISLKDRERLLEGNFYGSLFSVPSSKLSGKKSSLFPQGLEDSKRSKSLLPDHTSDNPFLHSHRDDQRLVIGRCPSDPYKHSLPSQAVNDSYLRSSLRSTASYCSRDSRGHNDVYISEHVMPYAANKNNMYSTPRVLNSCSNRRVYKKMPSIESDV
Chain of Delta-type opioid receptor (P41143 whole entry): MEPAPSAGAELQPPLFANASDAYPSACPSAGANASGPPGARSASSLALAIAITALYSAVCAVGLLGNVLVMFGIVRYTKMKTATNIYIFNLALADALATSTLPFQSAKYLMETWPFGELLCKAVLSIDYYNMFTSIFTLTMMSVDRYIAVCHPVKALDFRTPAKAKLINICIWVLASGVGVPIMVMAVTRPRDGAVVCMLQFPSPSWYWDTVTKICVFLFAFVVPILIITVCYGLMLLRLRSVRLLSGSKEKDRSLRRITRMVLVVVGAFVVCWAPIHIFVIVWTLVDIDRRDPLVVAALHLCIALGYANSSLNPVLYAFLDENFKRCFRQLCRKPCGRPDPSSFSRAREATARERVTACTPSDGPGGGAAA
Chain of Beta-1 adrenergic receptor (P08588 whole entry): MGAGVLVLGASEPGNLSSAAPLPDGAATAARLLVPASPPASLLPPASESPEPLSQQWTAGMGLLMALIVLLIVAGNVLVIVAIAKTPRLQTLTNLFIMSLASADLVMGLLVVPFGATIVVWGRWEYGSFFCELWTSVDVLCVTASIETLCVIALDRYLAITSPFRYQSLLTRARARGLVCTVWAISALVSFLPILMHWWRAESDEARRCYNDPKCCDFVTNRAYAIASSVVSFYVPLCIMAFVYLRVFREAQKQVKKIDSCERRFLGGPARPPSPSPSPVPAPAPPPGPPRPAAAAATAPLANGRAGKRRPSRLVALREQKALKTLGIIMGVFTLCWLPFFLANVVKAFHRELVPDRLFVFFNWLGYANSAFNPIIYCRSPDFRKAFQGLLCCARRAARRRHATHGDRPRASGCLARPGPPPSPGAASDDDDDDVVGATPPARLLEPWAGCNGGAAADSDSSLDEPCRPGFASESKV

Compound | Ki [1] | Ki [2] | Ki [3] | Ki [4] | Ki [5] | Ki [6] | Ki [7] | Ki (D(1B) dopamine receptor) | Ki (D(2) dopamine receptor) | Ki [8] | Ki [9] | Ki [10] | Ki (Histamine H4 receptor) | Ki (Mu-type opioid receptor) | Ki [11]
COc1ccc2[nH]cc(CCN(C)C(C)C)c2c1 [5-meo-mipt] | 0.0123 µM | 0.0225 µM | 0.0585 µM | > 10 µM | 0.13 µM | > 10 µM | > 10 µM | > 10 µM | > 10 µM | > 10 µM | > 10 µM | > 10 µM | > 10 µM | > 10 µM | > 10 µM
CN(C)CCc1c[nH]c2cc(F)ccc12 [6-f-dmt] | 0.393 µM | 0.0554 µM | 0.0298 µM | > 10 µM | 0.0256 µM | 0.173 µM | > 10 µM | 6.29 µM | 0.61 µM | > 10 µM | > 10 µM | > 10 µM | > 10 µM | > 10 µM | > 10 µM
COc1cc(CC(C)N)c(OC)cc1C (stereo not drawn) [(+/-)2-(2,5-Dimethoxy-4-methyl-phenyl)-1-methyl-ethylamine] | 3.66 µM | 0.209 µM | 0.0117 µM | > 10 µM | 8.15 µM | 3.22 µM | > 10 µM | > 10 µM | > 10 µM | > 10 µM | > 10 µM | > 10 µM | > 10 µM | > 10 µM | > 10 µM
CC(C)N(CCc1c[nH]c2ccccc12)C(C)C [dipt] | 0.12 µM | 3.74 µM | 0.398 µM | > 10 µM | > 10 µM | > 10 µM | > 10 µM | > 10 µM | > 10 µM | > 10 µM | > 10 µM | > 10 µM | > 10 µM | > 10 µM | > 10 µM
CCCN(CCC)CCc1c[nH]c2ccccc12 [dpt] | 0.0318 µM | 0.619 µM | 0.042 µM | > 10 µM | 4.54 µM | 0.881 µM | > 10 µM | > 10 µM | 9.25 µM | > 10 µM | > 10 µM | > 10 µM | > 10 µM | > 10 µM | > 10 µM
CAS_82830-44-2::(2R)-1-(4-iodo-2,5-dimethoxyphenyl)propan-2-amine::DOI,(-)::US20250270173, Compound DOI | 2.22 µM | 0.458 µM | 0.336 µM | > 10 µM | 2.11 µM | > 10 µM | 0.591 µM | > 10 µM | > 10 µM | > 10 µM | > 10 µM | > 10 µM | > 10 µM | > 10 µM | 1.99 µM
